What all share (format): cell-based
One assay has as its target T1, α-Gal A mutant form N53K (Homo sapiens, UniProt P06280, N53K).
T1 construct: expressed in transfected cells; host or cells: HEK-293
T1 sequence (P06280 32-429 N53K): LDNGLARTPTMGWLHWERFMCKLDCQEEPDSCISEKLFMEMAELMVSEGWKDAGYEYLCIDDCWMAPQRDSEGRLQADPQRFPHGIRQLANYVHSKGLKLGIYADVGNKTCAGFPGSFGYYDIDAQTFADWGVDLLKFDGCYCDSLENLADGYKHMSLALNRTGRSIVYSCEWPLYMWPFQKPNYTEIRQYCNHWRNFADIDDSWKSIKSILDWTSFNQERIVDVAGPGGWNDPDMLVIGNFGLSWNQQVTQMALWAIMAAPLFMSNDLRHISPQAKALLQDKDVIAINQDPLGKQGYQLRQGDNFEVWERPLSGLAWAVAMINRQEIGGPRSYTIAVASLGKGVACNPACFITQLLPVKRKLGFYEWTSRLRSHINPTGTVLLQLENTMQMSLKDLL
Description: α-Gal A activity in lysates of transfected HEK-293 cells, N53K. As to the method: (§1) Baseline and 10 μM migalastat α-Gal A activity: Differences in the α-Gal A activity between lysates incubated in the absence and presence of 10 μM migalastat were determined using a one-tailed, Mann Whitney U test; an increase at 10 μM migalastat with a p<0.05 was considered significant.
(§2) 10 μM migalastat α-Gal A activity (% WT)=(α-Gal A activity in mutant transfected cell lysates incubated with 10 μM migalastat÷α-Gal A activity in wild-type transfected cell lysates without migalastat)*100.
(§3) Absolute increase (% WT)=is the 10 μM migalastat α-Gal A activity (% WT) minus the baseline α-Gal A activity (% WT).
(§4) Relative increase is the 10 μM migalastat α-Gal A activity in mutant transfected cell lysates÷baseline α-Gal A activity in mutant transfected cell lysates incubated without migalastat.

The target of assay [1] is T2, α-Gal A mutant form S238G (Homo sapiens, UniProt P06280, S238G).
T2 construct: expressed in transfected cells; host or cells: HEK-293
T2 sequence (P06280 32-429 S238G): T1 sequence (P06280 32-429 N53K) with K22N, S207G
Description: α-Gal A activity in lysates of transfected HEK-293 cells, S238G. As for the experimental part:
as §1, §2, §3, §4

In another assay the target is T3, α-Gal A mutant form V22G (Homo sapiens, UniProt P06280).
T3 construct: expressed in transfected cells; host or cells: HEK-293
T3 sequence (P06280 32-429): T1 sequence (P06280 32-429 N53K) with K22N
Description: α-Gal A activity in lysates of transfected HEK-293 cells, V22G. As for the experimental part: as §1, §2, §3, §4

Assay [2] has as its target T4, α-Gal A mutant form T412P (Homo sapiens, UniProt P06280, T412P).
T4 construct: expressed in transfected cells; host or cells: HEK-293
T4 sequence (P06280 32-429 T412P): T1 sequence (P06280 32-429 N53K) with K22N, T381P
Description: α-Gal A activity in lysates of transfected HEK-293 cells, T412P. As for the experimental part:
as §1, §2, §3, §4

Assay [3] concerns the target T5, α-Gal A mutant form Y216S (Homo sapiens, UniProt P06280, Y216S).
T5 construct: expressed in transfected cells; host or cells: HEK-293
T5 sequence (P06280 32-429 Y216S): T1 sequence (P06280 32-429 N53K) with K22N, Y185S
Description: α-Gal A activity in lysates of transfected HEK-293 cells, Y216S. As for the experimental part:
as §1, §2, §3, §4

Setting [4] is: 10 μM migalastat minus baseline.
The mark [5] stands for this setting: 10 μM migalastat ÷ baseline activity.
Setting [6] is: HEK-293 lysates, 10 μM migalastat, 5 days, mean ± SEM.

Molecules are shown by their SMILES. Residue numbers refer to the chain shown, from its start.

As to `OC[C@H]1NC[C@H](O)[C@@H](O)[C@H]1O` [migalastat, (2R,3S,4R,5S)-2-(hydroxymethyl) piperdine-3,4,5-triol], the “Absolute increase (% WT)” value on α-Gal A mutant form N53K (setting [4]) is reported as 24.0 % WT; in assay [1] (setting [4]), 67.7 % WT; at α-Gal A mutant form V22G (setting [4]), 9.0 % WT; in assay [2] (setting [4]), 16.9 % WT; in assay [3] (setting [4]) it was 32.7 % WT. Moreover, the Relative increase on α-Gal A mutant form N53K (setting [5]) was found to be 2.70; in assay [1] (setting [5]) it was 4.26; at α-Gal A mutant form V22G (setting [5]) it was 1.53; in assay [2] (setting [5]) it was 11.21; in assay [3] (setting [5]) it was 17.70. Also, the “10 μM migalastat α-Gal A activity” value amounted to 13895 ± 1270 nmol/mg/h at α-Gal A mutant form N53K (setting [6]), 25106 ± 1611 nmol/mg/h in assay [1] (setting [6]), 7150 ± 700 nmol/mg/h on α-Gal A mutant form V22G (setting [6]) and 7159 ± 459 nmol/mg/h in assay [2] (setting [6]). Further, the “10 μM migalastat α-Gal A activity (% WT)” value on α-Gal A mutant form N53K (setting [6]) is 38.6 ± 2.5 % WT; in assay [1] (setting [6]) it was 86.4 ± 7.2 % WT; at α-Gal A mutant form V22G (setting [6]), 24.6 ± 2.8 % WT; in assay [2] (setting [6]), 18.6 ± 1.2 % WT; in assay [3] (setting [6]), 34.7 ± 1.8 % WT. In addition, the “10 nM migalastat α-Gal A activity” value in assay [3] (HEK-293 lysates, 10 nM migalastat as printed, 5 days, mean ± SEM) is 11238 ± 751 nmol/mg/h.

The values are drawn from patent US12594268B2, “Methods of treating Fabry disease in patients having a mutation in the GLA gene” (Amicus Therapeutics, Inc., priority 2018, dated 2026).
